The values below come from publication PMC6830221, “Engineering a surrogate human heteromeric α/β glycine receptor orthosteric site exploiting the structural homology and stability of acetylcholine-binding protein” (IUCrJ, 2019).

In series [1] the target is T1, variant III, glycine-binding protein (GBP) (Aplysia californica, UniProt Q8WSF8, C207G/C208T/G162E/I135S/P209G/Q74R/S206K/T53F/Y110A). Description: biochemical. The procedure:
(§1) The interaction of strychnine with AcAChBP and GBP was investigated using ITC. Measurements were carried out with a MicroCal PEAQ-ITC (Malvern Panalytical) at 25°C. The protein solutions (10 µM AcAChBP, 40 µM GBP) were prepared by dialysis against buffer (50 mM Tris–HCl pH 7.5, 250 mM NaCl) at 4°C overnight. Strychnine solutions (concentrations of 100 and 500 µM) were prepared in the same buffer. For the experiments, the initial injection of one 0.4 µl aliquot was followed by 17 × 2 µl injections at 3 min intervals. In each case the injection needle acted as a paddle, stirring the cell contents at 750 rev min^−1, and the reference was set at 10 µcal s^−1. Data were analyzed using the software supplied by the manufacturer to calculate K d, ΔH, −TΔS, ΔG and N, which were derived from a one-binding-site model. Control measurements, buffer into buffer, strychnine into buffer and buffer into protein solutions, were used to determine an appropriate offset adjustment. Examples of the data, averaged parameters and standard errors derived from three titrations are presented in Supplementary Fig. S1.

Series [2] has as its target T1, variant III, glycine-binding protein (GBP).
The target is the same in series [3]. As to the kind of experiment: biochemical. On the procedure:
(§2) Measurements were recorded using a PerkinElmer LS-55 spectrophotometer with the detector sensitivity set to 750 V. Stock solutions of 10 µg ml^−1 GBP and AcAChBP were prepared, along with two strychnine stock solutions of 100 µM and 1 mM in the same buffer as used for the ITC experiments. The protein samples (2 ml) were excited at a wavelength of 280 nm, and emission was recorded between 300 and 400 nm. For GBP, aliquots of 20 µl of the 1 mM strychnine stock were used, followed by mixing. For AChBP, additions of 2 µl of the 100 µM strychnine stock were made, followed by mixing. Experiments were carried out in triplicate and the percentage change in fluorescence was calculated. Data were analyzed using Microsoft Excel and GraphPad Prism 7.
The source holds these as a separate data set.

Series [4] has the same target. On the procedure:
(§3) Fluorescence-based screening by differential scanning fluorimetry (DSF; see, for example, Eadsforth et al., 2012[▸]) was used to determine the melting temperature (T m) values. An Mx3005P RT PCR system (Stratagene) was used to monitor protein unfolding by the increase in fluorescence of SYPRO Orange dye (Invitrogen). Assays were carried out in 40 µl volumes with proteins at around 10 µM in 50 mM Tris–HCl, 250 mM NaCl pH 7.5 in 96-well RT PCR plates (ABgene). To investigate the influence of the chemical probe strychnine, 1 µl of strychnine dissolved in DMSO or buffer and then diluted with buffer was incubated with the protein solutions for 5 min prior to 71 cycles of 1°C temperature increments starting at 25°C. After each 1°C increase the sample was excited at 492 nm and fluorescence emission was recorded at 610 nm. The melting temperatures were plotted against a reference control sample of DMSO only. The strychnine concentration varied between […], with a requirement to limit the concentration of DMSO in the final mixture to <2.5%.
This is another data set of the same source.

Another series deals with AcAChBP variant I (Aplysia californica, UniProt Q8WSF8, I135S/Q74R/T53F/W164F/Y110A). The procedure: as §2
Sequence of AcAChBP variant I (Q8WSF8 18-236 T53F/Q74R/Y110A/I135S/W164F limits assumed): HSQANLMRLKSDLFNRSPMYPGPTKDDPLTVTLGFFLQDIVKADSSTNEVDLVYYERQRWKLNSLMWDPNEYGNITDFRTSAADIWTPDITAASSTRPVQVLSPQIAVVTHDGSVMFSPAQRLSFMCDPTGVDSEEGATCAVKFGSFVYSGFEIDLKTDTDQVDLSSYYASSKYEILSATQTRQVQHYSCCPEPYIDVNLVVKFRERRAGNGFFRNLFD
The target in a further series is AcAChBP variant II (Aplysia californica, UniProt Q8WSF8, G162E/I135S/Q74R/T53F/Y110A). On the procedure:
as §2

Series [5] concerns the target T2, WT AcAChBP (Aplysia californica, UniProt Q8WSF8). As to the kind of experiment: Tryptophan fluorescence-quenching assay. The series is classed as binding. More on the design: made in house; host or cells: baculovirus/Sf9. The procedure: as §2
Series [6] concerns the target AcAChBP. The note with it: ref Hansen et al., cited from earlier work.
For series [7] the following is noted: ref Haynes, 2015; cited from earlier work.
Series [8] concerns the target recombinant homomeric GlyR-α1. The note with it: radioligand saturation assay, ref Wöhri et al., 2013; cited from earlier work.
The target of series [9] is T2, WT AcAChBP. Description: biochemical. On the procedure: as §1
Series [10] has as its target AcAChBP. Particulars: ref Brams et al., 2011; cited from earlier work.
Series [11] deals with recombinant homomeric GlyR-α3. The note with it: surface plasmon resonance, ref Huang et al., 2015; cited from earlier work. On the technique in general: SPR reads the build-up and loss of mass on a sensor chip optically.
Series [12] concerns the target recombinant homomeric GlyR-α1. The note with it: ITC, ref Wöhri et al., 2013; cited from earlier work. In general terms: Isothermal titration calorimetry measures the heat released or taken up as one component is titrated into another.
Series [13] addresses AcAChBP variant II (T53F, Q74R, Y110A, I135S, G162E) (Aplysia californica, UniProt Q8WSF8, G162E/I135S/Q74R/T53F/Y110A). Particulars: Table S1, Variant-II. On the procedure: as §3
In series [14] the target is AcAChBP variant I (T53F, Q74R, Y110A, I135S, W164F) (Aplysia californica, UniProt Q8WSF8, I135S/Q74R/T53F/W164F/Y110A). The note with it: Table S1, Variant-I, biphasic melting. The procedure: as §3
Sequence of AcAChBP variant I (T53F, Q74R, Y110A, I135S, W164F) (Q8WSF8 18-236 T53F/Q74R/Y110A/I135S/W164F limits assumed): as above
Series [15] deals with recombinant homomeric GlyR-α3. The note with it: ITC, ref Huang et al., 2015; cited from earlier work.
[16] abbreviates: binding to AcAChBP, stopped-flow spectrofluorimetry, 2005.

Values joined by “and” are separate entries in the source; they are usually repeats but may differ in a detail not shown here. Equal entries are not always repeated. Where two headings read alike, the source gives them in different places.

T2 sequence (Q8WSF8 entry or part of it): as the sequence (Q8WSF8 18-236 T53F/Q74R/Y110A/I135S/W164F limits assumed) above, with F36T, R57Q, A93Y, S118I, F147W counted along it
T1 sequence (Q8WSF8 18-236 C207G/C208T/G162E/I135S/P209G/Q74R/S206K/T53F/Y110A limits assumed): as the sequence (Q8WSF8 18-236 T53F/Q74R/Y110A/I135S/W164F limits assumed) above, with G145E, F147W, S189K, C190G, C191T, P192G counted along it
Sequence of AcAChBP variant II (Q8WSF8 18-236 T53F/Q74R/Y110A/I135S/G162E limits assumed): as the sequence (Q8WSF8 18-236 T53F/Q74R/Y110A/I135S/W164F limits assumed) above, with G145E, F147W counted along it
Sequence of AcAChBP variant II (T53F, Q74R, Y110A, I135S, G162E) (Q8WSF8 18-236 T53F/Q74R/Y110A/I135S/G162E limits assumed): as the sequence (Q8WSF8 18-236 T53F/Q74R/Y110A/I135S/W164F limits assumed) above, with G145E, F147W counted along it

On to `NCC(=O)O` [glycine], for which, in [1] (variant III (GBP)), the “association with variant III (ITC)” value was “failed to show any binding”. Moreover, the “association with variant III (biolayer interferometry)” value in [2] is given as “failed to show any binding”. Besides, the “association with variant III (fluorescence assay)” value in [3] (variant III (GBP)) was “failed to show any binding”. The ΔTm entry in series [4] (ligand binding to variant III (GBP), DSF) is “+2 °C”. The “ligand binding (tryptophan fluorescence)” value at AcAChBP variant I and at AcAChBP variant II was “neither did the fluorescence assay register any glycine binding” each time.

For the molecule `CN1CCC[C@H]1c1cccnc1` [nicotine], the Kd at WT AcAChBP [5] (binding to WT AcAChBP, tryptophan fluorescence, three titrations, read-out: Kd) was 245 nM; at AcAChBP [6] (setting [16]), 250 nM. In addition, the “ligand binding (tryptophan fluorescence)” value on AcAChBP variant I and at AcAChBP variant II was “Neither variant I nor variant II appeared to be able to bind nicotine” each time.

Regarding `O=C1C[C@@H]2OCC=C3CN4CC[C@]56c7ccccc7N1[C@H]5[C@H]2[C@H]3C[C@H]46` [strychnine], the pKa result in series [7] is given as “approximately 8.3”. The Kd on WT AcAChBP [5] was 155 nM; in series [8], 52 nM; at WT AcAChBP [9], 74.1 nM; in series [1], 28800 nM; in [11], 43 nM; in series [12], 138 nM. The Kd at AcAChBP [6] (AcAChBP, stopped-flow spectrofluorimetry assay, 2004) was 15 nM; in series [3] (Kd, tryptophan fluorescence, GBP, n=3), 26600 nM and 27000 nM; in series [15], 52 nM. In addition, the Ki on AcAChBP [10] is 38 nM. The “∆Tm (C) + strychnine” value in series [13] is recorded as “+5 C”; in [14] (first value) it was “+5 C”; in series [14] (second value) it was “+25 C”; in series [4] (Table S1, Variant-III (GBP)), “+3 C”.

In the case of `CN1[C@@H]2CC[C@H]1C[C@@H](OC(=O)c1c[nH]c3ccccc13)C2` [tropisetron], the Kd on WT AcAChBP [5] was 275 nM; at AcAChBP [6] (setting [16]) it was 480 nM.

The Kd is a measure of binding affinity in units of concentration. As a reminder, the Ki is the equilibrium dissociation constant of an inhibitor or competing ligand from its target.
